Measured values as given in US11291674B2 (CALITHERA BIOSCIENCES, INC., priority 2016, dated 2022).
Where “and” joins values, the source holds several entries; their conditions need not be identical. Equal values may be shown once.

Experiments:
B16.F10 tumor = assay: Example 1: arginase inhibitor with adoptive immunotherapy, B16.F10 tumors; format: in vivo, mouse; details: 100 mg/kg twice a day, vs adoptive T cell therapy only; survival P value 0.0137
Experimental: In order to test the effect of arginase inhibitors and adoptive immunotherapy on cancer progression, mice were inoculated with B16.F10 cells to generate a tumor. Approximately 1×10^6 cells were implanted in C57.Bl/6 mice. Mice were then treated with non-myeloablative chemotherapy (Cyclophosphamide 250 mg/kg and Fludarabine 50 mg/kg). Cyclophosphamide and Fludarabine were dosed via intraperitoneal injection on day 7 (FIG. 1A, orange arrow). Pme1-1 CD8 T cells (1×10^6) were intravenously transferred on day 8 (FIG. 1A, blue arrow). Recombinant human IL-2 (200,000 UI) was dosed via intraperitoneal injection twice a day on days 8, 9, 10 in mice receiving adoptive immunotherapy. […] Survival curves can be seen in FIG. 1C. P value is 0.0137, and was calculated by Mantel-Cox test. (N=9-10 per group).

[1] = target: T1, Recombinant bovine endothelial NOS (Bos taurus, UniProt P29473); assay: NOS activity assay, endothelial NOS; format: biochemical; details: 50 μM arginase inhibitor
T1 construct: Eurofins/Cerep Panlabs (contract laboratory that ran the assay)
Source text: (§1) Nitric oxide (NO) synthase (NOS) activity assays.
(§2) Standard deviations are indicated in parentheses. […] N/A=not applicable.

[2] = system: G-MDSC-mediated suppression of T cell proliferation; assay: T cell proliferation in media conditioned by G-MDSC of a lung cancer patient; format: cell-based, human
Experimental: T cell/myeloid cell co-culture assays. […] Granulocytes were incubated for 48 h at 37° C., during which time they spontaneously activate as determined by surface expression of CD66b and scatter properties. T cells isolated from the same donor using a pan-T cell isolation kit (Stemcell Technologies) were loaded with CFSE and plated with immobilized anti-CD3 and soluble anti-CD28 in the presence of the aged granulocytes. The cells were co-cultured at several ratios of granulocytes to T cells as indicated or at a fixed ratio of 4 T cells to 1 granulocyte. Co-cultures were incubated for 3-4 days, at which time media were analyzed for L-arginine and L-ornithine by mass spectrometry and T cell proliferation was determined by flow cytometry. Granulocytic MDSC (G-MDSC) or granulocytes from cancer patients were isolated from whole blood purchased from Conversant Biologics. G-MDSCs were purified from the PBMC layer of a Ficoll gradient by positive selection for CD66b^+ cells. Granulocytes were purified from the RBC layer of a Ficoll gradient using Hetasep (Stemcell Technologies). […] Cytokines were quantified in the media from T cell co-culture assays using the Cytometric Bead Array kit according to the manufacturer's instructions (BD Biosciences).

[3] = system: cancer patient granulocyte-mediated suppression of T cell proliferation; assay: T cell proliferation in media conditioned by granulocytes of a head and neck cancer patient; format: cell-based, human
Experimental: T cell/myeloid cell co-culture assays. […] Granulocytes were incubated for 48 h at 37° C., during which time they spontaneously activate as determined by surface expression of CD66b and scatter properties. T cells isolated from the same donor using a pan-T cell isolation kit (Stemcell Technologies) were loaded with CFSE and plated with immobilized anti-CD3 and soluble anti-CD28 in the presence of the aged granulocytes. The cells were co-cultured at several ratios of granulocytes to T cells as indicated or at a fixed ratio of 4 T cells to 1 granulocyte. Co-cultures were incubated for 3-4 days, at which time media were analyzed for L-arginine and L-ornithine by mass spectrometry and T cell proliferation was determined by flow cytometry. Granulocytic MDSC (G-MDSC) or granulocytes from cancer patients were isolated from whole blood purchased from Conversant Biologics. G-MDSCs were purified from the PBMC layer of a Ficoll gradient by positive selection for CD66b^+ cells. Granulocytes were purified from the RBC layer of a Ficoll gradient using Hetasep (Stemcell Technologies). G-MDSC or granulocytes were incubated in co-culture media containing 100 μM L-arginine for 48 h, at which time the cells were removed and the G-MDSC- or granulocyte-conditioned media were used for incubating healthy donor CFSE-loaded T cells on immobilized anti-CD3/soluble anti-CD28 for 3-4 days. Cytokines were quantified in the media from T cell co-culture assays using the Cytometric Bead Array kit according to the manufacturer's instructions (BD Biosciences).

LLC tumors = LLC tumors in mice with conditional Arg1 deletion in the myeloid lineage; format: in vivo, mouse; details: 100 mg/kg every 12 h for 14 days
Source text: Conditional Arg1 deleted mice. Arg1 floxed mice were crossed to the Tie2-Cre deleter strain (The Jackson Laboratory) as previously described. Experimental mice were generated from crossing Arg1^Flox/Flox; Tie2-Cre^+ males with Arg1^Flox/Flox; Tie2-Cre^+ females, with Cre negative littermates serving as wild-type controls. Mice were housed and used in accordance with protocols approved by the Institutional Animal Care and Use Committee at St. Jude Children's Research Hospital. LLC cells (1×10^6 per mouse) were injected s.c. in the flank region. […] Mice were euthanized, and tumors excised and weights recorded. Myeloid deletion of Arg1 was confirmed via western blotting of IL-4-stimulated bone marrow-derived macrophages for all animals.

[4] = Pharmacokinetic and pharmacodynamic study in LLC tumor-bearing mice; format: in vivo, mouse
Source text: (****P<0.0001; ***P<0.001; **P<0.01 vs. vehicle).

Recombinant human Arg2 = target: T2, Recombinant human Arg2 (Homo sapiens, UniProt P78540); assay: Recombinant arginase activity assay, Arg2; format: biochemical; details: mean (SD), N=2, 20 mM L-arginine
T2 construct: Recombinant human arginase 2 (Arg2) comprising amino acids […] was purchased from US Biological; purchased US Biological
T2 sequence (P78540 23-354): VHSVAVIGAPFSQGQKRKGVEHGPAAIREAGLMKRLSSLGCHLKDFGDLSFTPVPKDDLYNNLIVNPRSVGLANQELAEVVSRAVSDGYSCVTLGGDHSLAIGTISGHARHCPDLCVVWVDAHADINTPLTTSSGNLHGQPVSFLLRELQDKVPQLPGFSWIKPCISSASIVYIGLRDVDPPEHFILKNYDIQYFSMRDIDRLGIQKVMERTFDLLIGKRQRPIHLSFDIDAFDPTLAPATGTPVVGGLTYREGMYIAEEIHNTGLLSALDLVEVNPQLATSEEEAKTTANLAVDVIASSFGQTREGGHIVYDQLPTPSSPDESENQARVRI
Source text: Recombinant arginase activity assays. […] Recombinant human arginase 2 (Arg2) comprising amino acids […] was purchased from US Biological (Salem, Mass.).
as §2

[5] = target: T3, Recombinant murine inducible NOS (Mus musculus, UniProt P29477); assay: NOS activity assay, inducible NOS; format: biochemical; details: 50 μM arginase inhibitor
T3 construct: Eurofins/Cerep Panlabs (contract laboratory that ran the assay)
Source text: as §1, §2

B16 cell line = assay: Cytotoxicity assay (CellTiterGlo), B16; format: cell-based, murine; details: 1 mM arginase inhibitor, 72 h
Experimental: Cytotoxicity assays. […] Cytotoxicity was assayed by the addition of CellTiterGlo reagent according to the manufacturer's instructions (Promega, Madison, Wis.) followed by […] quantification on a Molecular Devices plate reader (Sunnyvale, Calif.).

Compound: C[C@H](N)C(=O)N1C[C@H](CCCB(O)O)[C@](N)(C(=O)O)C1 [arginase inhibitor]
- Tumor volume over 25 days, combination with adoptive T cell therapy (B16.F10 tumor): slower tumor progression
- Inhibition of endothelial NOS [1]: No inhibition
- Arginine depletion of the media ([2]; G-MDSC of a lung cancer patient): arginine depletion was blocked
- T cell proliferation restored, of control levels ([2]; media conditioned by G-MDSC of a lung cancer patient): 99%
- Secretion of interferon-γ and granzyme-B into the media ([3]; T cells in cancer patient granulocyte-conditioned media): restored secretion
- Arginine depletion of the media ([3]; granulocytes of a head and neck cancer patient): arginine depletion was blocked
- T cell proliferation restored, of control levels ([3]; media conditioned by granulocytes of a head and neck cancer patient): 79%
- Tumor growth in Arg flox/flox; Tie2-Cre+ (ARG1 ΔM) animals (LLC tumors): no further reduction in tumor growth
- L-arginine in tumor and plasma ([4]; oral dosing, tumor-bearing mice): raised the amount of L-arginine
- Exposure of arginase inhibitor in tumor and plasma ([4]; single dose or BID dosing for 5 days, oral, 2 h after last dose): dose-dependent exposure
- IC50 (Recombinant human Arg2): 0.274 µM and 0.296 µM
- Inhibition of inducible NOS [5]: No inhibition
- Growth inhibition of B16 cell line (B16 cell line): No growth inhibition
